{
  "source": "patent US11110104B2",
  "about": "“Glutamine antagonists for the treatment of cognitive deficits and psychiatric disorders” (THE JOHNS HOPKINS UNIVERSITY, priority 2015, dated 2021)",
  "key": {"[1]": {"system": "glutamate in CSF", "assay": "CSF glutamate levels in EcoHIV mice (LC/MS)", "type": "in vivo, mouse", "experimental": "CSF samples were derivatized with dabsyl chloride for analysis. To prepare a dabsyl chloride stock, acetone was added to dabsyl chloride to 10 mM concentration, vortexed, water bath sonicated for 10 minutes followed by heating to 60° C. for 10 minutes, vortexing again, centrifugation for 5 minutes at 16,000×g and taking the supernatant. Ten microliter standards of glutamate were prepared in artificial CFS by serial dilution. To each standard and sample, one volume of 0.2 M sodium bicarbonate buffer (pH 9.0 containing 100 μM glutamate-d5 as internal standard) and 2 volumes dabsyl chloride stock was added. Samples were incubated at 60° C. 10 minutes to derivatize. […] Glutamate was quantifiable to 10 nM.\nMale C57BL6 mice were sham or EcoHIV-inoculated (4e6 pg p24, i.p.) then randomized to receive vehicle or compound 25 (1.82 mg/kg, i.p. every other day) beginning 15 post-inoculation. On day 33 post-inoculation, all mice were deeply anesthetized with isoflurane 30 minutes post-last dose, and CSF was terminally sampled from the cistema magna prior to measurement of glutamate concentrations by LC/MS-MS. EcoHIV infection caused increases in CSFS glutamate that were normalized by compound 25 treatment. Excluding values >2SD from mean, n=4-5/group. Analysis by two-way ANOVA followed by post-hoc Fisher's LSD, *p<0.05, ***p<0.001. Data are presented as the mean+SEM."}, "[2]": {"system": "CSDS mice", "assay": "Three-chambered social approach test after chronic social defeat stress (CSDS)", "type": "in vivo, mouse", "experimental": "(§1) Compound 25 was synthesized by our laboratory. For all pharmacokinetic and efficacy studies, compound 25 was administered per oral (p.o.) at a dose of 1.82 mg/kg (1 mg/kg DON equivalent) in 50 mM HEPES-buffered saline.\nMale 7- to 8-week-old C57BL/6J (C57) mice (25-30 g; Jackson Laboratory, Bar Harbor, Me.) and 4- to 6-month-old CD-1 retired breeders (35-45 g; Charles River Laboratories, Wilmington, Mass.) were used for all experiments. Mice were housed on a reversed 12-h light/dark cycle, and maintained in a humidity- and temperature-controlled room with water and food available ad libitum. CD-1 mice were singly housed except during social defeats. C57 mice were group housed before starting CSDS and singly housed after CSDS. Behavioral experiments were conducted during the dark cycle. All studies were conducted with approved protocols from the Johns Hopkins University Institutional Animal Care and Use Committee and were in accordance with the NIH guidelines for the Care and Use of Laboratory Animals.\nMice were exposed to CSDS and subsequently administered compound 25 or vehicle every other day for 12 days (FIG. 14A). To examine the effect of compound 25 treatment on behavioral phenotypes induced by CSDS, we first tested the mice in the three-chambered social approach test, where the social approach of a mouse toward a stranger mouse trapped in a wire cage was measured."}, "[3]": {"system": "CSDS mice", "assay": "Sucrose preference test after CSDS", "type": "in vivo, mouse", "experimental": "as §1\nThe sucrose preference test was performed according to a previously described protocol (Cao et al, 2013; Roybal et al, 2007). The mice were singly caged before the test. On day 1, their normal water bottles were replaced with two 50 ml tubes (bottle ‘A’ and bottle ‘B’) fitted with bottle stoppers containing two-balled sipper tubes. The position of bottles A and B were switched daily to avoid a side bias, and the fluid consumed from each bottle was measured daily. During days 1 and 2, bottles A and B were filled with normal drinking water (W/W). During days 3 and 4, both bottles were filled with a solution of 1.5% sucrose dissolved in drinking water (S/S). On days 5-8, bottle A contained 1.5% sucrose, and bottle B contained drinking water […]. Sucrose preference on each day for each mouse was calculated as 100%×(Vol A/(Vol A+Vol B)) and averaged across the days for a given condition (W/W, S/S, or S/W). The average of total fluid consumption was also calculated as (Vol A+Vol B).\nTo examine the effect of compound 25 treatment on anhedonia-like behavior, control and CSDS mice were subjected to an 8-day sucrose preference test."}, "[4]": {"system": "EcoHIV-infected mice", "assay": "Radial arm water maze, therapeutic DON treatment of EcoHIV-infected mice", "type": "in vivo, mouse", "conditions": "DON 1 mg/kg every other day started 26 days after EcoHIV infection; tests from day 30", "experimental": "The experimental design was for DON prophylaxis except that mice were infected first and DON administration at 1 mg/kg every other day started on Day 26 after infection."}, "[5]": {"system": "STX1A", "assay": "Gene expression by QPCR in basal ganglia brain tissues of EcoHIV-infected mice", "type": "in vivo, mouse", "conditions": "DON treatment reversal experiment; tissues collected 15 min after last DON treatment", "experimental": "Relative extent of gene expression tested by QPCR in basal ganglia brain tissues obtained from mice tested in DON treatment reversal experiment shown in FIG. 2A, FIG. 2B, and FIG. 2C. The tissues were collected 15 min after the last DON treatment;"}, "[6]": {"system": "NRGN", "assay": "Gene expression by QPCR in basal ganglia brain tissues of EcoHIV-infected mice", "type": "in vivo, mouse", "conditions": "DON treatment reversal experiment; tissues collected 15 min after last DON treatment"}, "[7]": {"assay": "DON levels in plasma, CSF and basal ganglia of mice (LC-MS/MS)", "type": "in vivo", "conditions": "C57Bl, mouse, 15 minutes after dosing, DON 1 mg/kg", "experimental": "DON was spiked into untreated mouse plasma to generate standards at concentrations from 10 nM to 100 μM at half-log intervals. Butanol with 3N HCl (250 μL) was added to standards and samples (50 μL) and centrifuged at 16,000×g for 5 minutes to precipitate proteins. […] After derivatization the samples were dried at 45° C. under a nitrogen stream. Samples were resuspended in 50 μL 70/30 water/acetonitrile, vortexed and centrifuged at 16,000×g. […] Standards within the quantifiable range were used to generate a standard curve. Samples below the limit of quantification (BLQ) were assigned a value of 0.\nBrain analysis: Brain sections were weighed. DON was spiked into untreated mouse brain tissue to generate standards as described above. Butanol with 3N HCl (5 μL/mg) was added to standards and samples and homogenized by pestle followed by centrifugation at 16,000×g. An aliquot (200 μL) of the supernatant was transferred to a new tube and processed as described in the plasma analysis section. Twenty microliters was injected for analysis as described hereinabove."}, "[8]": {"system": "EAE mice", "conditions": "cited from earlier work"}, "[9]": {"system": "EcoHIV-infected mice", "assay": "Radial arm water maze, DON prophylaxis in EcoHIV-infected mice"}, "[10]": {"assay": "Pharmacokinetics of DON in swine plasma and CSF", "conditions": "60 min post-administration"}, "[11]": {"assay": "Stability in human plasma", "type": "in vitro ADME"}, "[12]": {"assay": "Stability in monkey plasma", "type": "in vitro ADME"}, "[13]": {"system": "LPS-treated mice", "assay": "LPS-induced deficit in contextual fear memory reconsolidation", "type": "in vivo, mouse", "conditions": "1.9 mg/kg, i.p. co-administered with LPS 0.3 mg/kg, i.p. on Day 2", "experimental": "Fear conditioning and testing were performed in sound-attenuating chambers equipped with a metal grid floor to deliver calibrated inescapable footshocks. Fear conditioning (Day 1) consisted of a 2 minute habituation period followed by three 20 second 80 dB 2 kHz tones co-terminating in 0.4 mA footshocks separated by 1 minute interstimulus intervals. One day later (Day 2), each mouse was randomized into one of four treatment groups (PBS/Vehicle, PBS/9, LPS/Vehicle, LPS/9) and co-administered either LPS (0.3 mg/kg, i.p.) or filtered PBS with either 9 (1.9 mg/kg, i.p.) or Vehicle. Four hours later, each mouse was exposed to a reactivation session in which they were placed back in the fear conditioning context for 15 minutes. One day later (Day 3), each mouse underwent a test for fear memory reconsolidation by being placed again in the fear conditioning context for 10 minutes. For each session, time spent freezing was determined using automated motion detection software (CleverSys) and converted to percentages.\nFreezing percentages during the reconsolidation test were grouped by treatment into 2 minute bins. Between group differences were determined by repeated measure two-way ANOVA and post hoc Dunnett's test with significance defined as p<0.05."}, "[14]": {"conditions": "DON 1 mg/kg, i.p., […], 30 days post-infection"}},
  "note": "“Also recorded” adds a separate entry of the source. Where two headings read alike, the source gives them in different places.",
  "data": [
    {"smiles": "CCOC(=O)[C@H](CCC(=O)C=[N+]=[N-])NC(=O)[C@@H](N)CC(C)C", "note": "[Compound 25]", "values": [
      {"measurement": "EcoHIV-induced increases in CSF glutamate concentration", "setting": "[1]; 1.82 mg/kg, i.p. every other day, CSF sampled day 33 post-inoculation, 30 minutes post-last dose", "result": "significantly reversed EcoHIV-induced increases in CSF glutamate concentration"},
      {"measurement": "social behaviors (time in chamber, time sniffing) in mice subjected to CSDS", "setting": "[2]; 1.82 mg/kg p.o. (1 mg/kg DON equivalent) every other day for 12 days after CSDS", "result": "normalized observed social behaviors"},
      {"measurement": "sociability in control mice", "setting": "[2]; 1.82 mg/kg p.o. every other day for 12 days, control mice", "result": "no effect on sociability in control mice"},
      {"measurement": "sucrose consumption (sucrose preference) in the CSDS group, days 5-8", "setting": "[3]; 1.82 mg/kg p.o. (1 mg/kg DON equivalent), CSDS mice", "result": "markedly restored sucrose consumption"},
      {"measurement": "sucrose consumption (sucrose preference) in controls, days 5-8", "setting": "[3]; 1.82 mg/kg p.o., control mice", "result": "no change was observed in controls"}
    ]},
    {"smiles": "[N-]=[N+]=CC(=O)CC[C@H](N)C(=O)O", "note": "[DON, 6-diazo-5-oxo-L-norleucine]", "values": [
      {"measurement": "cognitive disease (radial arm water maze)", "setting": "[4]", "result": "completely abrogates (reverses) cognitive disease"},
      {"measurement": "STX1A gene expression in basal ganglia", "setting": "[5]", "result": "reversed HIV-mediated down-modulation"},
      {"measurement": "NRGN gene expression in basal ganglia", "setting": "[6]", "result": "reversed HIV-mediated down-modulation"},
      {"measurement": "concentration at 15 min", "setting": "[7]; CSF, read-out: DON concentration in CSF", "result": "300 to 500", "unit": "nM"},
      {"measurement": "concentration at 15 min", "setting": "[7]; brain (basal ganglia), read-out: DON concentration in brain tissue (basal ganglia)", "result": "300 to 500", "unit": "nM"},
      {"measurement": "concentration at 15 min", "setting": "[7]; plasma, read-out: DON concentration in plasma", "result": "2500 to 3000", "unit": "nM"},
      {"measurement": "glutamate in CSF of EcoHIV mice", "setting": "[1]; DON-treated mice, no significant differences by one-way ANOVA", "result": "tended to decrease the glutamate in the EcoHIV mice"},
      {"measurement": "EAE (disease score), DON from time of immunization", "setting": "[8]; DON i.p. q.a.d. 1.6 mg/kg from the time of immunization (Shijie, et al., 2009)", "result": "attenuates EAE"},
      {"measurement": "EAE (disease score), lower doses of DON", "setting": "[8]; DON i.p. q.a.d., doses lower than 1.6 mg/kg (Shijie, et al., 2009)", "result": "ineffective"},
      {"measurement": "HIV-induced cognitive impairment (radial arm water test, learning and memory)", "setting": "[9]; DON 1 mg/kg on alternate days from 24 h before EcoHIV infection, tested 30 days after infection", "result": "prevents development of HIV-induced cognitive impairment"},
      {"measurement": "cognitive performance as measured by errors (RAWM, hidden platform)", "setting": "[9]; [14]", "result": "fully normalized cognitive performance"},
      {"measurement": "cognitive performance as measured by latency to escape (RAWM, hidden platform)", "setting": "[9]; [14]", "result": "fully normalized cognitive performance"}
    ]},
    {"smiles": "CC(C)OC(=O)[C@H](CCC(=O)C=[N+]=[N-])NC(=O)OC(OC(=O)C(C)(C)C)c1ccccc1", "note": "(stereo partly drawn) [Compound 47]", "values": [
      {"measurement": "CSF-to-plasma ratio of DON relative to DON", "setting": "[10]", "result": "increased CSF-to-plasma ratios"},
      {"measurement": "amount of DON delivered to the CSF relative to DON", "setting": "[10]", "result": "substantially higher amounts of DON to the CSF"}
    ]},
    {"smiles": "CC(C)OC(=O)[C@H](CCC(=O)C=[N+]=[N-])NC(=O)O[C@H](C)OC(=O)C(C)(C)C", "note": "(single isomer, unassigned) [Compound 14b]", "values": [
      {"measurement": "stability in human plasma", "setting": "[11]", "result": "unexpected stability"},
      {"measurement": "stability in monkey plasma", "setting": "[12]", "result": "unexpected stability"},
      {"measurement": "CSF-to-plasma ratio of DON relative to DON", "setting": "[10]", "result": "increased CSF-to-plasma ratios"},
      {"measurement": "amount of DON delivered to the CSF relative to DON", "setting": "[10]", "result": "substantially higher amounts of DON to the CSF"}
    ]},
    {"smiles": "CC(C)C[C@H](N)C(=O)N[C@@H](CCC(=O)C=[N+]=[N-])C(=O)OC(C)C", "note": "[Compound 9]", "values": [
      {"measurement": "LPS-induced reduced freezing during the reconsolidation test (Day 3)", "setting": "[13]", "result": "attenuated; also recorded: indistinguishable from PBS/Veh mice"}
    ]}
  ]
}
